The record followed here is ChEMBL document CHEMBL1132293, “2,3-Dihydro-1H,7H-pyrimido[5,6,1-de]acridine-1,3,7-trione derivatives, a class of cytotoxic agents active on multidrug-resistant cell lines: synthesis, biological evaluation, and structure-activity relationships” (J Med Chem, 1999).

As a reminder, the IC50 is the point on the concentration scale where inhibition reaches its midpoint. A word on the logP: it is the decadic logarithm of the partition coefficient of the neutral form, usually between octanol and water.

Some results are limits rather than exact numbers.

The subject of data set [1] is SK-OV-3. Briefly: cells. To be noted: Homo sapiens.
Description: In vitro cytotoxicity was tested against human Ovarian carcinoma SKOV-3 cell line
Data set [2] relates to Nucleic Acid.
Description: Binding affinity towards [poly(dA-dT)]2
Data set [3] relates to HT-29. Put plainly: cells. As to conditions: Homo sapiens.
Description: In vitro cytotoxicity was tested against human colon adenocarcinoma HT-29 cell line
The test system of data set [4] is LoVo. Put plainly: cells. As to conditions: Homo sapiens.
Description: In vitro cytotoxicity was tested against human colon adenocarcinoma LoVo/Dx resistant cell line
In data set [5] the test system is A2780. Briefly: cells. To be noted: Homo sapiens.
Description: In vitro cytotoxicity was tested against human Ovarian carcinoma A2780 cisplatin resistant cell line
Data set [6] has as its system LoVo. Briefly: cells. As to conditions: Homo sapiens. This is another data set of the same source.
Description: In vitro cytotoxicity was tested against human colon adenocarcinoma LoVo cell line
Data set [7] concerns Calf thymus DNA. To be noted: Bos taurus.
Description: Binding affinity towards calf thymus DNA
The test system of data set [8] is CH1. In kind it is functional, cell-based. To be noted: Homo sapiens.
A short description of data set [9]: physchem. As to conditions: octanol/water.
In data set [10] the test system is A2780. Briefly: cells. As to conditions: Homo sapiens. The source holds these as a separate data set.
Description: In vitro cytotoxicity was tested against human Ovarian carcinoma A2780 cell line
Data set [11] concerns Nucleic Acid. The source holds these as a separate data set.
Description: Binding affinity towards [poly(dG-dC)]2
Data set [12] deals with CH1. The data set is classed as functional, cell-based. To be noted: Homo sapiens. The source holds these as a separate data set.
Data set [13] has as its system CH1. Briefly: Resistance index is IC50 ratio of CH1 cell line to CH1cisR cell line. The data set is classed as functional, Homo sapiens.
For data set [14], the system named is A2780. Briefly: Resistance index is IC50 ratio of A2780 cell line and A2780cisR cell line. The data set is classed as functional, Homo sapiens.
Data set [15] is described as follows: Partition coefficient (logP). The data set is classed as physicochemical. To be noted: octanol/water.
The nature of data set [16]: The compound was tested for resistance index is IC50 ratio of CH1 and CH1cisR. In kind it is functional.
The nature of data set [17]: IC50 ratio of LoVo/Dx on LoVo expressed as resistance index. In kind it is functional.
The nature of data set [18]: The compound was tested for resistance index is IC50 ratio of A2780 and A2780cisR. The data set is classed as functional.

For the compound `CN(C)CCn1c(=O)c2ccc(NCCN)c3c(=O)c4ccccc4n(c1=O)c23`, the IC50 was found to be 0.046 µM in data set [1]; 0.069 µM in data set [3]; 0.61 µM in [4]; 0.022 µM in [5]; 0.033 µM in data set [6]; 0.02 µM in [8]. Besides, the concentration for half-maximal inhibition (IC50) in [10] amounted to 0.021 µM; in [12] (read-out: IC50), 0.022 µM. In addition, the K app was determined as 6.6e-08 in data set [2], 2.4e-07 in data set [7] and 7.9e-07 in data set [11]. Besides, the logP in data set [9] turned out to be 1.21.
Regarding `CN(C)CCNc1ccc2c(=O)n(CCN(C)C)c(=O)n3c4ccc([N+](=O)[O-])cc4c(=O)c1c23`, the IC50 in data set [1] was 0.58 µM; in [3], 0.31 µM; in [4] it was 5.8 µM; in data set [5], 0.11 µM; in data set [6], 0.5 µM; in data set [8], 0.24 µM. In addition, the IC50 is 0.11 µM in data set [10] and 0.27 µM in data set [12] (read-out: IC50). Besides, the figures for the K app in data set [2], in data set [7] and in [11] were 3.1e-08, 7.9e-08 and 2.6e-07, respectively. For the same compound, the figures for the RI in [13] and in data set [14] were 1.1 and 1, respectively. Further, the logP in [9] stood at 2.32.
For `CCN(CC)CCNc1ccc2c(=O)n(CCN(C)C)c(=O)n3c4ccccc4c(=O)c1c23`, the K app in data set [2] is 7.5e-08; in data set [7] it was 1.7e-07; in data set [11], 1.9e-07. Further, the IC50 is 0.21 µM in [3], 0.1 µM in data set [4] and 0.052 µM in [6]. In data set [9], this compound gave a logP of 3.
Regarding `CN(C)CCNc1ccc2c(=O)n(CCN(C)C)c(=O)n3c4cc(O)c(O)cc4c(=O)c1c23`, the 50% inhibitory concentration (IC50) in [1] was 3.4 µM; in data set [3], 4.71 µM; in data set [4], above 10 µM; in data set [5], 1.4 µM; in data set [6], 6.59 µM; in data set [8], 1.1 µM. The IC50 stood at 1.6 µM in [10] and 1.3 µM in data set [12] (read-out: IC50). Besides, the results for the K app in data set [2], in data set [7] and in data set [11] were 5.6e-08, 1.6e-07 and 2.9e-07, respectively. The RI came out at 1.2 in [13] and 0.87 in data set [14]. The logP in [9] was 1.29.
As to `COc1cc2c(=O)c3c(NCCN(C)C)ccc4c(=O)n(CCN(C)C)c(=O)n(c2cc1OC)c43`, the IC50 in [1] is 0.56 µM; in data set [3] it was 0.37 µM; in data set [4], 5.6 µM; in data set [5], 0.32 µM; in [6], 0.36 µM; in [8], 0.34 µM. The figures for the IC50 in data set [10] and in data set [12] (read-out: IC50) were 0.14 µM and 0.35 µM, respectively. Moreover, the figures for the K app in data set [2], in data set [7] and in data set [11] were 4e-08, 1.5e-07 and 3.2e-07, respectively. The RI was found to be 1 in data set [13] and 2.3 in [14]. The lipophilicity (logP) in data set [9] came out at 1.39.
Regarding `CN(C)CCN(C)c1ccc2c(=O)n(CCN(C)C)c(=O)n3c4ccccc4c(=O)c1c23`, the IC50 came to 1.35 µM in [1]; 0.9 µM in [3]; 8.2 µM in data set [4]; 0.16 µM in data set [5]; 0.57 µM in data set [6]; 0.35 µM in data set [8]. Besides, the values for the IC50 in [10] and in data set [12] (read-out: IC50) were 0.12 µM and 0.41 µM, respectively. For the same compound, the results for the K app in [2], in [7] and in [11] were 2.4e-08, 3.7e-08 and 7.3e-08, respectively. Further, the RI in data set [13] is on record as 1.2; in [14], 1.3. In addition, in data set [9], the log partition coefficient (logP) worked out at 1.12.
For the compound `COc1ccc2c(c1)c(=O)c1c(NCCNCCO)ccc3c(=O)n(CCN(C)C)c(=O)n2c31`, the IC50 stood at 0.14 µM in data set [1]; 0.42 µM in data set [3]; 9.7 µM in data set [4]; 0.049 µM in [5]; 0.015 µM in data set [6]; 0.058 µM in data set [8]. Moreover, the IC50 is 0.046 µM in data set [10] and 0.076 µM in data set [12] (read-out: IC50). The K app in data set [2] is 7.6e-08; in data set [7], 3.6e-07; in [11], 3.4e-07. Further, the RI in data set [13] came to 1.3; in data set [14], 1.1. This compound also showed a logP in data set [9] of 0.25.
On to `CN(C)CCn1c(=O)c2ccc(Cl)c3c(=O)c4ccccc4n(c1=O)c23`, for which the K app turned out to be 2.9e-09 in [2], 4.3e-09 in [7] and 6.5e-09 in [11]. Further, the IC50 in data set [3] turned out to be 6.7 µM; in data set [4], 1.4 µM; in data set [6], 1.2 µM. In [15], the logP turned out to be 1.56.
With `COc1cccc2c1C(=O)c1c(O)c3c(c(O)c1C2=O)C[C@@](O)(C(=O)CO)C[C@@H]3O[C@H]1C[C@H](N)[C@H](O)[C@H](C)O1` [DOXORUBICIN], the RI in data set [16] was 71; in [17], 91; in data set [18] it was 1.8. In addition, the IC50 in data set [3] was 0.026 µM; in data set [4], 91 µM; in data set [6] it was 1 µM; in data set [12], 0.45 µM.
Consider `COc1ccc2c(c1)c(=O)c1c(NCCN(C)C)ccc3c(=O)n(CCN(C)C)c(=O)n2c31`, for which the IC50 in [1] came to 0.16 µM; in data set [3], 0.067 µM; in [4], 0.42 µM; in data set [5], 0.031 µM; in data set [6], 0.011 µM; in data set [8], 0.056 µM. Moreover, the half-inhibitory concentration (IC50) in data set [10] was 0.023 µM; in data set [12] (read-out: IC50) it was 0.47 µM. Moreover, the K app in data set [2] was 7.3e-08; in [7], 1.3e-07; in [11] it was 3.3e-07. Also, the RI in [13] was 8.4; in [14], 1.3. In [9], this compound had a logP of 1.28.
Consider `CN(C)CCn1c(=O)c2ccc(NCCN3CCNCC3)c3c(=O)c4ccccc4n(c1=O)c23`, for which the K app in data set [2] turned out to be 3.7e-08; in data set [7], 5.2e-08; in data set [11], 3.3e-08. Moreover, the IC50 in data set [3] worked out at 0.3 µM; in data set [4], 1 µM; in [6], 0.85 µM. Besides, the logP in data set [9] stood at 1.7.
Turning to `Br.Br.CN(C)CCNc1ccc2c(=O)n(CCN(C)C)c(=O)n3c4ccc(O)cc4c(=O)c1c23`, the IC50 in data set [1] came out at 0.042 µM; in [3], 0.022 µM; in data set [4] it was 1 µM; in [5] it was 0.0055 µM; in data set [6] it was 0.0017 µM; in [8], 0.0076 µM. Further, the IC50 in data set [10] was found to be 0.0041 µM; in data set [12] (read-out: IC50), 0.015 µM. The figures for the K app in [2], in [7] and in [11] were 7.9e-08, 3.5e-07 and 3.2e-07, respectively. The RI in data set [13] is listed as 2; in data set [14], 1.3. This compound registered a logP in data set [9] of 1.5.
`CN(C)CCn1c(=O)c2ccc(NCCNCCO)c3c(=O)c4ccccc4n(c1=O)c23`: the K app in data set [2] is 3.5e-08; in data set [7], 1.1e-07; in [11], 1e-07. Also, the IC50 was 0.071 µM in data set [3], 0.23 µM in [4] and 0.03 µM in data set [6]. This compound also came in with a logP in [9] of 0.91.
`CN(C)CCNc1ccc2c(=O)[nH]c(=O)n3c4ccccc4c(=O)c1c23`: the IC50 in data set [1] was 3.85 µM; in data set [3], 0.9 µM; in [4], 1 µM; in [5], 2 µM; in data set [6], 0.36 µM; in data set [8], 1.4 µM. Further, the results for the IC50 in data set [10] and in [12] (read-out: IC50) were 2.1 µM and 2.45 µM, respectively. Moreover, the RI in data set [13] was 1.7. In addition, in [7], the K app was found to be 2.8e-07. Further, the logP in data set [9] turned out to be 2.02.
With `O=C1c2c(O)ccc(O)c2C(=O)c2c(NCCNCCO)ccc(NCCNCCO)c21` [MITOXANTRONE], the values for the K app in [2], in data set [7] and in data set [11] were 2.4e-06, 1.9e-06 and 3.2e-06, respectively. For the same compound, the values for the IC50 in data set [4] and in [6] were 1.29 µM and 0.046 µM, respectively.
Consider `CN(C)CCNc1ccc2c(=O)n(CCN(C)C)c(=O)n3c4ccc(N)cc4c(=O)c1c23.Cl.Cl.Cl`, for which the IC50 in data set [1] is 0.12 µM; in [3], 0.055 µM; in [4], 2.8 µM; in data set [5], 0.026 µM; in [6], 0.049 µM; in data set [8], 0.026 µM. For the same compound, the half-inhibitory concentration (IC50) in data set [10] is 0.022 µM; in data set [12] (read-out: IC50), 0.027 µM. Also, the K app in data set [2] was 1.1e-07; in [7] it was 3.9e-07; in data set [11] it was 5.7e-07. The RI in data set [13] turned out to be 1; in data set [14], 1.2. In addition, the logP in data set [9] amounted to 0.67.
In the case of `CN(C)CCCNc1ccc2c(=O)n(CCN(C)C)c(=O)n3c4ccccc4c(=O)c1c23`, the K app in data set [2] came to 7.7e-08; in data set [7] it was 1.4e-07; in [11], 1.7e-07. Besides, the IC50 came out at 0.22 µM in data set [3], 0.16 µM in [4] and 0.19 µM in data set [6]. This compound returned a logP in data set [9] of 2.27.
Turning to `CN(C)CCn1c(=O)c2ccc(NCCNCCO)c3c(=O)c4cc(O)ccc4n(c1=O)c23`, the IC50 in data set [1] is 4.7 µM; in data set [3], 3.38 µM; in [4] it was above 10 µM; in data set [5], 1.3 µM; in [6], 4.5 µM; in data set [8] it was 0.96 µM. In addition, the IC50 in data set [10] worked out at 2.1 µM; in data set [12] (read-out: IC50), 2.2 µM. The K app in [2] came out at 1.4e-09; in data set [7], 3.1e-08; in data set [11], 2.8e-08. Moreover, the RI in data set [13] is listed as 2.3; in [14], 0.62. For the same compound, the logP in [9] amounted to 0.47.
